Among the data in US20240400584A1, “COMPOUNDS AND METHODS FOR MODULATING SPLICING” (REMIX THERAPEUTICS INC., priority 2021, published 2024) are IC50 and AC50 values, retold here.

A value given as a limit tells only on which side of the number the result lay.

One assay has as its system Target C. Nature of the assay: Gene panel canonical junction qPCR assay, Target C CJ mRNA (Table 7). It counts as cell-based, human. Conditions: Homo sapiens, read-out: Target C CJ mRNA decrease IC50. The essentials: (§1)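 A673 or K562 cells were treated with compound; lysates went through cDNA synthesis and RT-qPCR, with a probe or primer spanning the canonical exon–exon junction. ΔCt vs housekeeper (GAPDH, GUSB or PPIA), normalized to DMSO (2^(−ΔΔCt)), converted to percentage response; IC50 from 4-parameter logistic fit of CJ decrease.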
A general note: In qPCR the cycle at which signal appears reflects the starting amount.

Assay [1] concerns HTT. The experiment in a line: RT-qPCR splicing assay, HTT AJ/CJ mRNA. It counts as cell-based, human. The settings on record: Homo sapiens, 24 h, A673 or K562 cells; for IC50: decrease in canonical junction mRNA; for AC50: increase in alternative junction mRNA. A digest of the protocol: (§2)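 Following 24 h compound exposure at 37 °C (11 points, 3-fold, highest 10 uM; DMSO ≤0.25%), A673 or K562 lysates underwent RT-qPCR for exon-inclusion (AJ) and canonical (CJ) junctions of HTT and MYB. Relative quantification used housekeeping-gene ΔCt and DMSO-normalized ΔΔCt, converted to percentage response.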

Assay [2] deals with HTT. Nature of the assay: Gene panel canonical junction qPCR assay, HTT CJ mRNA (Table 7). The class given is cell-based, human. The settings on record: Homo sapiens, read-out: HTT CJ mRNA decrease IC50. The essentials: as §1
Another assay concerns SMN2. The experiment in a line: Gene panel canonical junction qPCR assay, SMN2 CJ mRNA (Table 7). It counts as cell-based. Conditions: Homo sapiens, read-out: SMN2 CJ mRNA decrease IC50. A digest of the protocol: as §1
The subject of assay [3] is MYB. The experiment in a line: RT-qPCR splicing assay, MYB AJ/CJ mRNA. The settings on record: Homo sapiens, A673 or K562 cells, 24 hours; for IC50: decrease in canonical junction mRNA; for AC50: increase in alternative junction mRNA. The class given is cell-based. The essentials: as §2
Assay [4] has as its system MYB. Nature of the assay: Gene panel canonical junction qPCR assay, MYB CJ mRNA (Table 7). The class given is cell-based. Conditions: Homo sapiens, read-out: MYB CJ mRNA decrease IC50. A digest of the protocol: as §1

Regarding `COc1cc(-c2ccc3c(c2)COc2nc(N4CCC(NCC5CC5)C4)ccc2-3)cnn1` (centres unmarked) [Compound 264, N-(cyclopropylmethyl)-1-[8-(6-methoxypyridazin-4-yl)-6H-isochromeno [3,4-b]378yrrolid-3-yl]378yrrolidine-3-amine], the IC50 (as a rule, the concentration needed to halve the response being measured) in the assay with Target C is 100 to 1000 nM; in the assay with HTT [1], 100 to 1000 nM; in the assay on HTT [2] it was 100 to 1000 nM; with SMN2, 100 to 1000 nM; in the assay with MYB [3], 1000 to 10000 nM; with MYB [4], 1000 to 10000 nM. Besides, the AC50 (usually the midpoint of the concentration-response curve, whichever way the signal moves) in the assay with HTT [1] was 100 to 1000 nM; with MYB [3], 1000 to 10000 nM.
For the molecule `COc1cc(-c2ccc3c(c2)COc2nc(N4CC[C@@H](NC(C)(C)C)C4)ccc2-3)cnn1` [Compound 265, (3R)—N-tert-butyl-1-[8-(6-methoxypyridazin-4-yl)-6H-isochromeno[3,4-b]376yrrolid-3-yl]376yrrolidine-3-amine], the IC50 was under 100 nM in the assay on Target C; under 100 nM with HTT [1]; under 100 nM in the assay with HTT [2]; under 100 nM in the assay with SMN2; 100 to 1000 nM in the assay on MYB [3]; 100 to 1000 nM in the assay on MYB [4]. Further, the AC50 in the assay on HTT [1] and with MYB [3] was under 100 nM each time.
With `CC(C)(C)NC1CCN(c2ccc3c(n2)OCc2cc(-c4cnnc(C5CC5)c4)ccc2-3)C1` (centres unmarked) [Compound 266, N-tert-butyl-1-[8-(6-cyclopropylpyridazin-4-yl)-6H-isochromeno[3,4-b]pyridin-3-yl]pyrrolidin-3-amine], the IC50 was over 10000 nM in the assay with Target C; over 10000 nM with HTT [1]; over 10000 nM with HTT [2]; 1000 to 10000 nM in the assay with SMN2; over 10000 nM with MYB [3]; over 10000 nM in the assay on MYB [4]. For the same molecule, the AC50 in the assay on HTT [1] and in the assay on MYB [3] was over 10000 nM in each case.
Regarding `CCOc1cc(-c2ccc3c(c2)COc2nc(N4CCC(NC(C)(C)C)C4)ccc2-3)cnn1` (centres unmarked) [Compound 267, N-tert-butyl-1-[8-(6-ethoxypyridazin-4-yl)-6H-isochromeno [3,4-b]pyridin-3-yl]pyrrolidin-3-amine], the IC50 was 1000 to 10000 nM in the assay with Target C; 100 to 1000 nM in the assay with HTT [1]; 100 to 1000 nM in the assay on HTT [2]; 100 to 1000 nM in the assay on SMN2; over 10000 nM with MYB [3]; over 10000 nM in the assay on MYB [4]. Besides, the AC50 in the assay with HTT [1] was 1000 to 10000 nM; in the assay on MYB [3], over 10000 nM.
In the case of `CC(C)(C)NC1CCN(c2ccc3c(n2)OCc2cc(-c4cnnc(OC5CC5)c4)ccc2-3)C1` (centres unmarked) [Compound 268, N-tert-butyl-1-[8-(6-cyclopropoxypyridazin-4-yl)-6H-isochromeno[3,4-b]pyridin-3-yl]pyrrolidin-3-amine], the IC50 with Target C was over 10000 nM; with HTT [1], 1000 to 10000 nM; in the assay with HTT [2], 1000 to 10000 nM; with SMN2, 1000 to 10000 nM; in the assay on MYB [3] it was over 10000 nM; in the assay with MYB [4], over 10000 nM. Besides, the AC50 is 1000 to 10000 nM in the assay with HTT [1] and over 10000 nM in the assay with MYB [3].
For `COc1cc(-c2ccc3c(c2)COc2nc(N4CC[C@H](NC(C)(C)C)C4)ccc2-3)cnn1` [Compound 269, (3S)—N-tert-butyl-1-[8-(6-methoxypyridazin-4-yl)-6H-isochromeno[3,4-b]pyridin-3-yl]pyrrolidin-3-amine], the IC50 with Target C is 100 to 1000 nM; in the assay on HTT [1], under 100 nM; with HTT [2], under 100 nM; in the assay on SMN2, under 100 nM; in the assay on MYB [3], 100 to 1000 nM; with MYB [4] it was 100 to 1000 nM. For the same molecule, the concentration at half-maximal activity (AC50) fell in the range of 100 to 1000 nM in the assay with HTT [1] and 1000 to 10000 nM in the assay on MYB [3].
As to `COc1cc(-c2ccc3c(c2)COc2nc(N4CC[C@H](N(C)C(C)(C)C)C4)ccc2-3)cnn1` [Compound 270, (3S)—N-tert-butyl-1-[8-(6-methoxypyridazin-4-yl)-6H-isochromeno[3,4-b]pyridin-3-yl]-N-methylpyrrolidin-3-amine], the IC50 with Target C is 100 to 1000 nM; in the assay on HTT [1] it was under 100 nM; in the assay with HTT [2], under 100 nM; in the assay on SMN2, under 100 nM; in the assay with MYB [3], 100 to 1000 nM; with MYB [4] it was 100 to 1000 nM. Also, the AC50 was under 100 nM in the assay with HTT [1] and 100 to 1000 nM in the assay on MYB [3].
